Measured values: PubChem BioAssay (NCI)
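Method: 48-hour compound exposure of cells in 96-well plates, five concentrations, linear interpolation of endpoints. TGI marks complete inhibition of growth.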 Where a SMILES comes first, the peptide text is derived from it. The star is where a group is joined. Boc = CC(C)(C)OC(=O)*; OBn = c1ccc(CO*)cc1; Bn = c1ccc(C*)cc1

Key:
Experiment in all cases: growth of human tumour cells (NCI), 48 h
IGROV1 ovarian = test system: IGROV1 ovarian
SK-MEL-5 melanoma = test system: SK-MEL-5 melanoma
HS 578T breast = test system: HS 578T breast
OVCAR-5 ovarian = test system: OVCAR-5 ovarian
MOLT-4 leukemia = test system: MOLT-4 leukemia
A498 renal = test system: A498 renal
LOX IMVI melanoma = test system: LOX IMVI melanoma
SN12C renal = test system: SN12C renal
M14 melanoma = test system: M14 melanoma
ACHN renal = test system: ACHN renal
KM12 colon = test system: KM12 colon
UACC-257 melanoma = test system: UACC-257 melanoma
MDA-MB-231 breast = test system: MDA-MB-231 breast
HCC-2998 colon = test system: HCC-2998 colon
MDA-N = test system: MDA-N
HL-60(TB) leukemia = test system: HL-60(TB) leukemia
SK-MEL-28 melanoma = test system: SK-MEL-28 melanoma
NCI/ADR-RES ovarian = test system: NCI/ADR-RES ovarian

Compound | TGI (IGROV1 ovarian) [µM] | TGI (SK-MEL-5 melanoma) [µM] | TGI (HS 578T breast) [µM] | TGI (OVCAR-5 ovarian) [µM] | TGI (MOLT-4 leukemia) [µM] | TGI (A498 renal) [µM] | TGI (LOX IMVI melanoma) [µM] | TGI (SN12C renal) [µM] | TGI (M14 melanoma) [µM] | TGI (ACHN renal) [µM] | TGI (KM12 colon) [µM] | TGI (UACC-257 melanoma) [µM] | TGI (MDA-MB-231 breast) [µM] | TGI (HCC-2998 colon) [µM] | TGI (MDA-N) [µM] | TGI (HL-60(TB) leukemia) [µM] | TGI (SK-MEL-28 melanoma) [µM] | TGI (NCI/ADR-RES ovarian) [µM]
COc1ccc(N=NN2CCCC2)cc1 | 41 | > 100 | > 100 | > 100 | 60.6 | > 100 | 37.2 | 55 | > 100 | 29.9 | 14.7 | > 100 | 47.7 | > 100 | 39.8 | > 100 | > 100 | –
CCCCCCc1cc(C=O)sc1-c1ccc(-c2sc(-c3ccc(-c4ccc(-c5cc(CCCCCC)c(-c6ccc(-c7sc(C=O)cc7CCCCCC)s6)s5)s4)s3)cc2CCCCCC)s1 | > 100 | > 100 | – | > 100 | > 100 | > 100 | > 100 | > 100 | > 100 | > 100 | > 100 | > 100 | > 100 | > 100 | > 100 | > 100 | > 100 | > 100
CC(C)(C)NCC(O)COc1cccc2[nH]c(C#N)cc12 (stereo unspecified) | > 100 | > 100 | > 100 | > 100 | > 100 | > 100 | – | > 100 | > 100 | > 100 | > 100 | – | > 100 | – | > 100 | > 100 | > 100 | > 100
CCc1nnc2sc(-c3ccc(-c4ccc(Cl)cc4Cl)o3)nn12 | > 100 | > 100 | > 100 | > 100 | > 100 | > 100 | > 100 | > 100 | > 100 | > 100 | > 100 | > 100 | > 100 | – | > 100 | > 100 | > 100 | > 100
Brc1ccc(-c2ccc(-c3ccc(Br)s3)s2)s1 | > 100 | > 100 | > 100 | > 100 | > 100 | > 100 | > 100 | > 100 | > 100 | > 100 | > 100 | > 100 | – | > 100 | > 100 | > 100 | > 100 | > 100
O=C1/C(=C/c2ccc(O)cc2)CCC1CNc1ccc(Cl)cc1 (stereo unspecified) | 15.1 | 20.8 | > 100 | 23.5 | 6.45 | 28.4 | 7.24 | 9.25 | 3.57 | 11.6 | 8.45 | 11.7 | 9.56 | 14.8 | 20.9 | – | 24.2 | 20.1
CC1(C(O)c2ccccc2)CN(C(C)(C)C)C(=O)/C1=C\Sc1ccccc1 (stereo unspecified) | > 100 | > 100 | – | > 100 | > 100 | > 100 | 32.1 | > 100 | > 100 | > 100 | > 100 | 95.2 | > 100 | > 100 | > 100 | > 100 | > 100 | > 100
NC12c3c4cccc3Oc3cccc(c31)Oc1cccc(c12)O4 | > 50 | – | > 50 | > 50 | > 50 | > 50 | – | > 50 | > 50 | > 50 | > 50 | > 50 | > 50 | – | > 50 | > 50 | > 50 | > 50
Cc1[nH]n(C(=O)c2ccccc2O)c(=O)c1/C=C1\C(=O)C=Cc2ccccc21 | 11.5 | 4.26 | > 100 | > 64.9 | > 100 | 11.2 | 8.79 | 13.6 | 4.63 | 12.8 | > 74.1 | 26.6 | 26.8 | > 71.7 | > 100 | – | 71.6 | 11
O=c1[nH]c2ccc(CC(=S)N3CCN(c4ccccc4)CC3)cc2s1 | > 100 | – | > 100 | 84.5 | > 100 | > 100 | > 100 | > 100 | > 100 | > 100 | > 100 | > 100 | > 100 | – | > 100 | > 100 | > 100 | 69.3
c1ccc(/C(=N/Nc2cnccn2)c2ncccn2)cc1 | > 100 | > 100 | > 100 | > 100 | > 100 | – | – | > 100 | > 100 | > 100 | > 100 | > 100 | > 100 | > 100 | > 100 | – | > 100 | > 100
CC(C)CC(NC(=O)C(Cc1ccccc1)NC(=O)C(COCc1ccccc1)NC(=O)OC(C)(C)C)C(=O)OCc1ccccc1 (stereo not drawn) (Boc-Ser(Bn)-Phe-Leu-OBn; configuration not given here) | 31.8 | – | – | > 100 | 33.4 | > 100 | 40.1 | 63.9 | > 100 | 33.1 | – | > 100 | 93 | 27.8 | > 100 | 15.3 | 42 | > 100
Cc1cccc(Nc2cn(CCOc3ccccc3)c(=O)[nH]c2=O)c1 | 54.9 | 70.2 | > 100 | > 100 | > 100 | > 100 | 94 | 81.7 | > 100 | > 100 | > 100 | > 100 | – | 91.6 | > 100 | – | > 100 | 9.06
